# Test results from patent US12398097B2, “WDR5-MYC inhibitors” (Vanderbilt University, priority 2019, dated 2025).
# Target: WDR5 (Homo sapiens, UniProt P61964)
# Test: Competition-based fluorescence polarization anisotropy assay
# Details: binding to WDR5; displacement of FITC-labeled small molecule probe (analogous to Example J2 or HCH-25) or peptide probe FITC-AHx-SEEEIDVVSV; pH 6.0; Ki converted from IC50
# How it was run: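 Ki values derive from displacement of either a fluorescent small-molecule probe or a FITC-peptide probe from WDR5, monitored by fluorescence polarization. Assay run at pH 6.0 in 200 mM phosphate with 300 mM NaCl, 0.5 mM TCEP and 0.1% Chaps.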
row,SMILES,Ki [µM]
1,"O=C(NCCCO)c1cc(Cl)cc(NS(=O)(=O)c2cc(Br)ccc2O)c1O [Example J17, 3-((5-Bromo-2-hydroxyphenyl)sulfonamido)-5-chloro-2-hydroxy-N-(3-hydroxypropyl)benzamide]",2.69
2,"COc1cc(Cl)c(Br)cc1S(=O)(=O)Nc1cc(Cl)cc(C(=O)O)c1O [Example J7, 3-((5-Bromo-4-chloro-2-methoxyphenyl)sulfonamido)-5-chloro-2-hydroxybenzoic acid]",3.75
3,"O=C(NCc1ccc(=O)[nH]c1)c1cc(Cl)cc(NS(=O)(=O)c2cc(Br)ccc2O)c1O [Example J35, 3-((5-Bromo-2-hydroxyphenyl)sulfonamido)-5-chloro-2-hydroxy-N-((6-oxo-1,6-dihydropyridin-3-yl)methyl)benzamide]",0.23
4,"COC[C@H]1CCCN1C(=O)c1cc(OC(F)(F)F)cc(NS(=O)(=O)c2cc(Br)ccc2O)c1O [Example J172, (R)-5-Bromo-2-hydroxy-N-(2-hydroxy-3-(2-(methoxymethyl)pyrrolidine-1-carbonyl)-5-(trifluoromethoxy)phenyl)benzenesulfonamide]",0.68
5,"O=C(NCC(F)F)c1cc(Cl)cc(NS(=O)(=O)c2cc(Br)ccc2O)c1O [Example J39, 3-((5-Bromo-2-hydroxyphenyl)sulfonamido)-5-chloro-N-(2,2-difluoroethyl)-2-hydroxybenzamide]",0.79
6,"N#CC1(c2cc(NS(=O)(=O)c3cc(Br)cc(Cl)c3O)c(O)c(C(=O)O)c2)CCC1 [Example J206, 3-((S-Bromo-3-chloro-2-hydroxyphenyl)sulfonamido)-5-(1-cyanocyclobutyl)-2-hydroxybenzoic acid]",0.02
7,"COc1cc(F)c(Br)cc1S(=O)(=O)Nc1cc(C2CC2)cc(C(=O)O)c1O [Example J72, 3-((5-Bromo-4-fluoro-2-methoxyphenyl)sulfonamido)-5-cyclopropyl-2-hydroxybenzoic acid]",1.11
8,"O=C(NC1CC(F)(F)C1)c1cc(Cl)cc(NS(=O)(=O)c2cc(Br)ccc2O)c1O [Example J38, 3-((5-Bromo-2-hydroxyphenyl)sulfonamido)-5-chloro-N-(3,3-difluorocyclobutyl)-2-hydroxybenzamide]",0.4
9,"O=C(O)c1cc(Cl)cc(NS(=O)(=O)c2cc(Br)cc([N+](=O)[O-])c2O)c1O [Example J6, 3-((5-Bromo-2-hydroxy-3-nitrophenyl)sulfonamido)-5-chloro-2-hydroxybenzoic acid]",0.11
10,"O=C(NCCO)c1cc(Cl)cc(NS(=O)(=O)c2cc(Br)ccc2O)c1O [Example J16, 3-((5-Bromo-2-hydroxyphenyl)sulfonamido)-5-chloro-2-hydroxy-N-(2-hydroxyethyl)benzamide]",0.54
11,"O=C(NCCN1CCOCC1)c1c(O)c(NS(=O)(=O)c2cc(Br)cc(Cl)c2O)cc(C2CC2)c1F [Example J148, 3-((5-Bromo-3-chloro-2-hydroxyphenyl)sulfonamido)-5-cyclopropyl-6-fluoro-2-hydroxy-N-(2-morpholinoethyl)benzamide]",0.6
12,"CNC(=O)c1c(O)c(NS(=O)(=O)c2cc(Br)ccc2O)cc(C2CC2)c1F [Example J124, 3-((5-Bromo-2-hydroxyphenyl)sulfonamido)-5-cyclopropyl-6-fluoro-2-hydroxy-N-methylbenzamide]",0.28
13,"O=C(NC1COC1)c1c(O)c(NS(=O)(=O)c2cc(Br)cc(Cl)c2O)cc(C2CC2)c1F [Example J149, 3-((5-Bromo-3-chloro-2-hydroxyphenyl)sulfonamido)-5-cyclopropyl-6-fluoro-2-hydroxy-N-(oxetan-3-yl)benzamide]",0.71
14,"COCCNC(=O)c1cc(C2CC2)cc(NS(=O)(=O)c2cc(Br)ccc2O)c1O [Example J86, 3-((5-Bromo-2-hydroxyphenyl)sulfonamido)-5-cyclopropyl-2-hydroxy-N-(2-methoxyethyl)benzamide]",0.56
15,"COc1cc(Cl)c(Br)cc1S(=O)(=O)Nc1cc(C2CC2)cc(C(=O)O)c1O [Example J71, 3-((5-Bromo-4-chloro-2-methoxyphenyl)sulfonamido)-5-cyclopropyl-2-hydroxybenzoic acid]",2.72
16,"O=C(NC1COC1)c1c(O)c(NS(=O)(=O)c2cc(Br)ccc2O)cc(C2CC2)c1F [Example J128, 3-((5-Bromo-2-hydroxyphenyl)sulfonamido)-5-cyclopropyl-6-fluoro-2-hydroxy-N-(oxetan-3-yl)benzamide]",0.7
17,"N#CC1(c2cc(NS(=O)(=O)c3cc(Br)ccc3O)c(O)c(C(N)=O)c2)CCC1 [Example J218, 3-((5-Bromo-2-hydroxyphenyl)sulfonamido)-5-(1-cyanocyclobutyl)-2-hydroxybenzamide]",1.5
18,"COc1cc(F)c(Br)cc1S(=O)(=O)Nc1cc(Cl)cc(C(=O)O)c1O [Example J8, 3-((5-Bromo-4-fluoro-2-methoxyphenyl)sulfonamido)-5-chloro-2-hydroxybenzoic acid]",2.77
19,"CS(=O)(=O)c1cc(Cl)cc(NS(=O)(=O)c2cc(Br)cc(Cl)c2O)c1O [Example S16-2, 5-Bromo-3-chloro-N-(5-chloro-2-hydroxy-3-(methylsulfonyl)phenyl)-2-hydroxybenzenesulfonamide]",0.02
20,"COc1ccc(Br)cc1S(=O)(=O)Nc1cc(Cl)cc(C(=O)N2CCOCC2)c1O [Example J48, 5-Bromo-N-(5-chloro-2-hydroxy-3-(morpholine-4-carbonyl)phenyl)-2-methoxybenzenesulfonamide]",6.19
21,"COCCN(C)C(=O)c1cc(C2CC2)cc(NS(=O)(=O)c2cc(Br)ccc2O)c1O [Example J83, 3-((5-Bromo-2-hydroxyphenyl)sulfonamido)-5-cyclopropyl-2-hydroxy-N-(2-methoxyethyl)-N-methylbenzamide]",6.38
22,"O=C(NC1COC1)c1cc(Cl)cc(NS(=O)(=O)c2cc(Br)ccc2O)c1O [Example J21, 3-((5-Bromo-2-hydroxyphenyl)sulfonamido)-5-chloro-2-hydroxy-N-(oxetan-3-yl)benzamide]",0.58

# Other lines, results leading:
row,Ki [µM],SMILES
1,0.17,"O=C(NCC1(O)CCOCC1)c1cc(OC(F)(F)F)cc(NS(=O)(=O)c2cc(Br)cc(Cl)c2O)c1O [HCH-53, 3-((5-Bromo-3-chloro-2-hydroxyphenyl)sulfonamido)-2-hydroxy-N-((4-hydroxytetrahydro-2H-pyran-4-yl)methyl)-5-(trifluoromethoxy)benzamide]"
2,0.13,"CCc1cc(Br)cc(S(=O)(=O)Nc2cc(OC(F)(F)F)cc(C(=O)O)c2O)c1O [HCH-14, 3-((5-Bromo-3-ethyl-2-hydroxyphenyl)sulfonamido)-2-hydroxy-5-(trifluoromethoxy)benzoic acid]"
3,13.7,"CNC(=O)c1cc(C2(C#N)CCC2)cc(NS(=O)(=O)c2cc(Br)cc(Cl)c2OC)c1O [SN-3, 3-((5-bromo-3-chloro-2-methoxyphenyl)sulfonamido)-5-(1-cyanocyclobutyl)-2-hydroxy-N-methylbenzamide]"
4,0.1,"CS(=O)(=O)c1cc(S(F)(F)(F)(F)F)cc(NS(=O)(=O)c2cc(Br)ccc2O)c1O [Example S19, 5-Bromo-2-hydroxy-N-(2-hydroxy-3-(methylsulfonyl)-5-(pentafluoro-λ^6-sulfaneyl)phenyl)benzenesulfonamide]"
5,0.6,"CCc1cc(Br)cc(S(=O)(=O)Nc2cc(Cl)cc(C(=O)NCC3(O)CCN(C)CC3)c2O)c1O [HCH-2, 3-((5-Bromo-3-ethyl-2-hydroxyphenyl)sulfonamido)-5-chloro-2-hydroxy-N-((4-hydroxy-1-methylpiperidin-4-yl)methyl)benzamide]"
6,0.51,"O=C(NC1CC(O)C1)c1cc(OC(F)(F)F)cc(NS(=O)(=O)c2cc(Br)ccc2O)c1O (mixture of isomers) [HCH-3, 3-((5-Bromo-2-hydroxyphenyl)sulfonamido)-2-hydroxy-N-(3-hydroxycyclobutyl)-5-(trifluoromethoxy)benzamide]"
7,1.78,"COc1ccc(Br)cc1S(=O)(=O)Nc1cc(Cl)cc([N+](=O)[O-])c1O [NE1, 5-Bromo-N-(5-chloro-2-hydroxy-3-nitrophenyl)-2-methoxybenzenesulfonamide]"
8,1.03,"CS(=O)(=O)c1cc(NS(=O)(=O)c2cc(Br)ccc2O)cc(C2CC2)c1 [Example S9, 5-Bromo-N-(3-cyclopropyl-5-(methylsulfonyl)phenyl)-2-hydroxybenzenesulfonamide]"
9,0.25,"O=C(NCCO)c1cc(OC(F)(F)F)cc(NS(=O)(=O)c2cc(Br)ccc2O)c1O [HCH-26, 3-((5-Bromo-2-hydroxyphenyl)sulfonamido)-2-hydroxy-N-(2-hydroxyethyl)-5-(trifluoromethoxy)benzamide]"
10,0.02,"O=C(O)c1cc(S(F)(F)(F)(F)F)cc(NS(=O)(=O)c2cc(Br)cc(Cl)c2O)c1O [Example S64, 3-((5-Bromo-3-chloro-2-hydroxyphenyl)sulfonamido)-2-hydroxy-5-(pentafluoro-λ^6-sulfaneyl)benzoic acid]"
11,4.3,"CS(=O)(=O)c1cc(S(F)(F)(F)(F)F)cc(NS(=O)(=O)c2ccc(Br)cc2O)c1O [Example S20, 4-Bromo-2-hydroxy-N-(2-hydroxy-3-(methylsulfonyl)-5-(pentafluoro-λ6-sulfaneyl)phenyl)benzenesulfonamide]"
12,0.19,"CS(=O)(=O)c1cc(C2(C#N)CCC2)cc(NS(=O)(=O)c2cc(Br)cc3cccnc23)c1O [Example S61, 6-Bromo-N-(5-(1-cyanocyclobutyl)-2-hydroxy-3-(methylsulfonyl)phenyl)quinoline-8-sulfonamide]"
13,0.61,"CCc1cc(Br)cc(S(=O)(=O)Nc2cc(Cl)cc(S(C)(=O)=O)c2)c1O [Example S5, 5-Bromo-N-(3-chloro-5-(methylsulfonyl)phenyl)-3-ethyl-2-hydroxybenzenesulfonamide]"
14,0.01,"N#CC1(c2cc(NS(=O)(=O)c3cc(Br)cc(Cl)c3O)cc(C(=O)O)c2)CCC1 [Example S71, 3-((5-Bromo-3-chloro-2-hydroxyphenyl)sulfonamido)-5-(1-cyanocyclobutyl)benzoic acid]"
